{"source": "patent US20140370149A1", "about": "“METHODS FOR USING REBAUDIOSIDE C AS A FLAVOR ENHANCER” (International Flavors & Fragrances Inc., priority 2011, published 2014)", "origin": "cited, not measured here", "details": "sweetness relative to sucrose", "data": [{"smiles": "C=C1C[C@@]23CC[C@H]4[C@@](C)(CCC[C@@]4(C)C(=O)O[C@@H]4O[C@H](CO)[C@@H](O)[C@H](O)[C@H]4O)[C@@H]2CC[C@]1(O[C@@H]1O[C@H](CO)[C@@H](O)[C@H](O)[C@H]1O[C@@H]1O[C@@H](C)[C@H](O)[C@@H](O)[C@H]1O)C3", "note": "[dulcoside A]", "values": [{"measurement": "times sweeter than sucrose", "result": 30, "unit": "times"}]}]}
